The values that follow come from patent publication US7563813B2, “Iminothiazolidinone derivatives as SFRP-1 antagonists” (Wyeth, priority 2005, dated 2009).

The structures appear in SMILES notation.

This assay addresses T1, hSFRP-1 (Homo sapiens, UniProt Q8N474).
T1 construct: expressed in transfected cells; host or cells: U2OS osteosarcoma cells (ATCC, HTB 96), transient co-transfection with Wnt 3, Wnt3A or Wnt 1, 16x TCF-tk-Luciferase reporter and CMV-beta-gal
T1 sequence (Q8N474 32-314): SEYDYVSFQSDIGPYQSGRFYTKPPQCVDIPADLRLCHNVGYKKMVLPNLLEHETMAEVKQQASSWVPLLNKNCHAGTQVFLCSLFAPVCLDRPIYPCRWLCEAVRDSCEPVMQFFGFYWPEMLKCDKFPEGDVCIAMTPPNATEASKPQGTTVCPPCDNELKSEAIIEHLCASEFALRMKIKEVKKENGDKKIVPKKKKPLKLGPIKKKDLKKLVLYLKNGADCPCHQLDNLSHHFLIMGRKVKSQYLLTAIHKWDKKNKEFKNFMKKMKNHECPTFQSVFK
The assay is described as follows: Cell-Based Assay for In Vitro Measurement of SFRP-1/SARP2 Antagonist Activity (U2OS cells, 16x TCF-tk-Luciferase reporter, Wnt + hSFRP-1 co-transfection). Conditions: initial single dose screening at 10 μM; for fold induction at 10 µM: luciferase reporter activity, fold induction over SFRP-1 control; for Ratio: ratio not defined. As to the method:
Cell-Based Assay for In Vitro Measurement of SFRP-1/SARP2 Antagonist Activity
The following cell-based assay can be used to identify inhibitors of SFRP-1.
The osteosarcoma cell line, U2OS (ATCC, HTB 96), was passaged twice a week with growth medium (McCoy's SA medium containing 10% (v/v) fetal calf serum, 2 mM GlutaMAX-1, and 1% (v/v) Penicillin-Streptomycin). The cells were maintained in vented flasks at 37° C. inside a 5% CO2/95% humidified air incubator. One day prior to transfection, the cells were plated with growth medium at 25,000 cells/well into 96-well plates and incubated at 37° C. overnight.
The growth medium was removed, and the cells were washed once with OPTIMEM I (Gibco-BRL) medium (100 μl/well) to remove the serum and antibiotics. The wash medium was removed, and the cells were re-fed with OPTI-MEM I medium (100 μl/well). For each well of cells to be transfected, the following DNA's were diluted together in 25 μl OPTI-MEM I medium: 0.1 μg 16× TCF-tk-Luciferase reporter, 0.02 μg Wnt 3, Wnt3A, Wnt 1 or empty vector (Upstate Biotechnology), 0.075 μg hSFRP-1 or empty vector (pcDNA3.1, Invitrogen), and 0.025 μg CMV-®gal (Clonetech). For each well of cells to be transfected, 1 μl of Lipofectamine 2000 reagent (Invitrogen) was diluted in 25 μl OPTI-MEM I medium and incubated at room temperature for 5 minutes. The diluted DNA's were then combined with the diluted Lipofectamine 2000 (LF2000), and the mixture was incubated at room temperature for 20 minutes. Fifty μl of the DNA-LF 2000 mixture was added to each well, and the plate(s) were incubated at 37° C. in a 5% CO2/95% humidified air incubator for 4 hours. The cells were washed once with 150 μl/well of experimental medium (phenol red-free RPMI Medium 1640 containing 2% fetal bovine serum, 2 mM GlutaMAX-1, and 1% Penicillin-Streptomycin). Finally, the cells were treated overnight at 37° C. with 200 μl/well of experimental medium containing either vehicle (typically DMSO) or diluted compound in replicates of 8 wells/compound.
Initial single dose screening of test compounds was done at 10 μM.
Dose-response experiments were initially performed with the compounds in log increases from 1-10,000 nM. From these dose-response curves, EC50 values were generated.
After treatment, the cells were washed twice with 150 μl/well of PBS without calcium or magnesium and were lysed with 50 μl/well of 1× cell culture lysis reagent (Promega Corporation) on a shaker at room temperature for 30 minutes. Thirty μl aliquots of the cell lysates were transferred to 96-well luminometer plates, and luciferase activity was measured in a MicroLumat PLUS luminometer (EG&G Berthold), or a Victor (PerkinElmer Life Sciences) using […] of luciferase substrate (Promega Corporation). Following the injection of substrate, luciferase activity was measured for 10 seconds after a 1.6 second delay. Similarly, 10 μl aliquots of the cell lysates were transferred to separate 96-well luminometer plates, and 50 μl of Galacton chemiluminescent substrate (Tropix) was added to each well. The plates were covered and incubated on a rotary shaker at room temperature for one hour. ®gal activity was measured in a MicroLumat PLUS luminometer or Victor using 100 μl/well of Light Emission Accelerator (Tropix). Following the injection of the accelerator, ®gal activity was measured for 10 seconds after a 1.6 second delay. The luciferase and ®gal activity data were transferred from the luminometer to a PC and analyzed using the SAS/Excel program. After the luciferase activity was normalized to ®gal, the SAS/Excel program was used to determine the mean and standard deviation of each treatment, to analyze the data for statistical significance, and to determine EC50 values.
As an alternative to co-transfection in a 96 well plate, the U2OS cells were transfected in T225 flasks and the transfected cells were frozen. The frozen cells were thawed and plated on a 96 well plate and the assay was carried out as detailed above. […]
For orientation: Reporter assays use an easily measured gene product as a stand-in for the process of interest.

`CCOC(=O)c1c(NC(=O)CC2SC(=N)NC2=O)sc2c1CCCCC2` (stereo not shown) [Example 36, ethyl 2-{[(2-imino-4-oxo-1,3-thiazolidin-5-yl)acetyl]amino}-5,6,7,8-tetrahydro-4H-cyclohepta[b]thiophene-3-carboxylate]: the fold induction at 10 µM stood at 1.5 and the Ratio amounted to 1.9.

Regarding `C#Cc1cccc(NC(=O)CC2SC(=N)NC2=O)c1` (stereo not shown) [Example 14, N-(3-ethynylphenyl)-2-(2-imino-4-oxo-1,3-thiazolidin-5-yl)acetamide], the fold induction at 10 µM stood at 1.8 and the Ratio turned out to be 1.6.

In the case of `N=C1NC(=O)C(CC(=O)Nc2cccc(F)c2F)S1` (stereo not shown) [Example 8, N-(2,3-difluorophenyl)-2-(2-imino-4-oxo-1,3-thiazolidin-5-yl)acetamide], the fold induction at 10 µM came out at 1.1 and the Ratio is on record as 1.0.

`N=C1NC(=O)C(CC(=O)Nc2ccc(Cl)c(Cl)c2)S1` (stereo not shown) [Example 6, N-(3,4-dichlorophenyl)-2-(2-imino-4-oxo-1,3-thiazolidin-5-yl)acetamide]: the fold induction at 10 µM came out at 1.7 and the Ratio came out at 1.7.

Consider `COC(=O)c1c(NC(=O)CC2SC(=N)NC2=O)sc2c1CCCC2` (stereo not shown) [Example 38, methyl 2-{[(2-imino-4-oxo-1,3-thiazolidin-5-yl)acetyl]amino}-4,5,6,7-tetrahydro-1-benzothiophene-3-carboxylate], for which the fold induction at 10 µM worked out at 1.3 and the Ratio was determined as 1.4.

Consider `CCOC(=O)c1ccccc1NC(=O)CC1SC(=N)NC1=O` (stereo not shown) [Example 51, ethyl 2-{[(2-imino-4-oxo-1,3-thiazolidin-5-yl)acetyl]amino}benzoate], for which the fold induction at 10 µM stood at 1.1 and the Ratio stood at 1.1.

`COC(=O)c1cc(Cl)ccc1NC(=O)CC1SC(=N)NC1=O` (stereo not shown) [Example 52, methyl 5-chloro-2-{[(2-imino-4-oxo-1,3-thiazolidin-5-yl)acetyl]amino}benzoate]: the fold induction at 10 µM came to 1.1 and the Ratio was determined as 1.1.

`N=C1NC(=O)C(CC(=O)NCc2ccccc2)S1` (stereo not shown) [Example 18, N-benzyl-2-(2-imino-4-oxo-1,3-thiazolidin-5-yl)acetamide]: the fold induction at 10 µM was found to be 1.2 and the Ratio stood at 1.1.

Regarding `N=C1NC(=O)C(CC(=O)Nc2cccc(Br)c2)S1` (stereo not shown) [Example 2, N-(3-bromophenyl)-2-(2-imino-4-oxo-1,3-thiazolidin-5-yl)acetamide], the fold induction at 10 µM turned out to be 2 and the Ratio is listed as 1.8.

With `Cc1cc(NC(=O)CC2SC(=N)NC2=O)on1` (stereo not shown) [Example 13, 2-(2-imino-4-oxo-1,3-thiazolidin-5-yl)-N-(3-methylisoxazol-5-yl)acetamide], the fold induction at 10 µM amounted to 1 and the Ratio is 1.0.

As to `COC(=O)c1cc(OC)c(OC)cc1NC(=O)CC1SC(=N)NC1=O` (stereo not shown) [Example 53, methyl 2-{[(2-imino-4-oxo-1,3-thiazolidin-5-yl)acetyl]amino}-4,5-dimethoxybenzoate], the fold induction at 10 µM was found to be 1 and the Ratio is recorded as 1.0.

In the case of `CCOC(=O)c1c(C)csc1NC(=O)CC1SC(=N)NC1=O` (stereo not shown) [Example 16, ethyl 2-{[(2-imino-4-oxo-1,3-thiazolidin-5-yl)acetyl]amino}-4-methylthiophene-3-carboxylate], the fold induction at 10 µM is 2 and the Ratio is recorded as 1.9.

With `N#Cc1cccc(NC(=O)CC2SC(=N)NC2=O)c1` (stereo not shown) [Example 4, N-(3-cyanophenyl)-2-(2-imino-4-oxo-1,3-thiazolidin-5-yl)acetamide], the fold induction at 10 µM came to 1.3 and the Ratio was 1.2.

Turning to `N=C1NC(=O)C(CC(=O)Nc2cccc([N+](=O)[O-])c2)S1` (stereo not shown) [Example 29, 2-(2-imino-4-oxo-1,3-thiazolidin-5-yl)-N-(3-nitrophenyl)acetamide], the fold induction at 10 µM was 1.7 and the Ratio was determined as 1.4.

Usually fold induction stands for the signal under treatment as a multiple of the control signal.
